Experimental data as given in patent publication US4965280A, “Antifungal carbinols” (E. I. Du Pont de Nemours and Company, priority 1989, dated 1990).

How the values were obtained:
Experiment in all cases: Test E
[1] = system: JET RAPE; type: in vivo, Brassica napus cv. Jet Neuf
[2] = system: MUSTARD SPP.; type: in vivo, Brassica spp.
[3] = system: SNTLS CHAMOMILE; type: in vivo, Matricaria indora
[4] = system: PERSN SPEEDWELL; type: in vivo, Veronica persica
[5] = system: BLACK NIGHTSHAD; type: in vivo, Solanum nigrum
[6] = system: PARK WHEAT; type: in vivo, Triticum aestivum cv. Park
[7] = system: LAMBSQUARTER; type: in vivo, Chenopodium album
[8] = system: BONANZA BARLEY; type: in vivo, Hordeum vulgare cv. Bonanza

Compound	plant response ([1]; POSTEMERGENCE 0064 GM/HA) [%]	plant response ([1]; POSTEMERGENCE 0125 GM/HA) [%]	plant response ([1]; POSTEMERGENCE 0250 GM/HA) [%]	plant response ([1]; POSTEMERGENCE 0500 GM/HA) [%]	plant response ([1]; PREEMERGENCE 0500 GM/HA) [%]	plant response ([2]; POSTEMERGENCE 0064 GM/HA) [%]	plant response ([2]; POSTEMERGENCE 0125 GM/HA) [%]	plant response ([2]; POSTEMERGENCE 0250 GM/HA) [%]	plant response ([2]; POSTEMERGENCE 0500 GM/HA) [%]	plant response ([2]; PREEMERGENCE 0500 GM/HA) [%]	plant response ([3]; POSTEMERGENCE 0064 GM/HA) [%]	plant response ([3]; POSTEMERGENCE 0125 GM/HA) [%]	plant response ([3]; POSTEMERGENCE 0250 GM/HA) [%]	plant response ([3]; POSTEMERGENCE 0500 GM/HA) [%]	plant response ([3]; PREEMERGENCE 0500 GM/HA) [%]	plant response ([4]; POSTEMERGENCE 0064 GM/HA) [%]	plant response ([4]; POSTEMERGENCE 0125 GM/HA) [%]	plant response ([4]; POSTEMERGENCE 0250 GM/HA) [%]	plant response ([4]; POSTEMERGENCE 0500 GM/HA) [%]	plant response ([4]; PREEMERGENCE 0500 GM/HA) [%]	also measured
C=C(c1ccc(F)cc1)C(O)(Cn1cncn1)c1ccc(F)cc1F (centres unmarked) [Example 4, 2-(2,4-Difluorophenyl)-3-(4-fluorophenyl)-1-(1H-1,2,4-triazol-1-yl)-3-buten-2-ol]	0	20	20	30	40	20	40	40	80	50	30	50	70	85	100	20	70	100	100	90	plant response ([5]; POSTEMERGENCE 0064 GM/HA): 10%; plant response ([5]; POSTEMERGENCE 0125 GM/HA): 30%; plant response ([5]; POSTEMERGENCE 0250 GM/HA): 70%; plant response ([5]; POSTEMERGENCE 0500 GM/HA): 90%; plant response ([5]; PREEMERGENCE 0500 GM/HA): 100%; plant response ([6]; POSTEMERGENCE 0064 GM/HA): 0%; plant response ([6]; POSTEMERGENCE 0125 GM/HA): 10%; plant response ([6]; POSTEMERGENCE 0250 GM/HA): 30%; plant response ([6]; POSTEMERGENCE 0500 GM/HA): 50%; plant response ([6]; PREEMERGENCE 0500 GM/HA): 80%; plant response ([7]; POSTEMERGENCE 0064 GM/HA): 0%; plant response ([7]; POSTEMERGENCE 0125 GM/HA): 20%; plant response ([7]; POSTEMERGENCE 0250 GM/HA): 20%; plant response ([7]; POSTEMERGENCE 0500 GM/HA): 70%; plant response ([7]; PREEMERGENCE 0500 GM/HA): 100%; plant response ([8]; POSTEMERGENCE 0064 GM/HA): 20%; plant response ([8]; POSTEMERGENCE 0125 GM/HA): 30%; plant response ([8]; POSTEMERGENCE 0250 GM/HA): 40%; plant response ([8]; POSTEMERGENCE 0500 GM/HA): 60%; plant response ([8]; PREEMERGENCE 0500 GM/HA): 100%
C=C(c1ccccc1)C(O)(Cn1cncn1)c1ccc(Cl)cc1 (centres unmarked) [Example 51, 2-(4-Chlorophenyl)-3-phenyl-1-(1H-1,2,4-triazol-1-yl)-3-buten-2-ol]	0	0	0	20	0	0	30	30	30	0	0	20	40	60	100	0	0	20	40	20	plant response ([5]; POSTEMERGENCE 0064 GM/HA): 0%; plant response ([5]; POSTEMERGENCE 0125 GM/HA): 0%; plant response ([5]; POSTEMERGENCE 0250 GM/HA): 40%; plant response ([5]; POSTEMERGENCE 0500 GM/HA): 60%; plant response ([5]; PREEMERGENCE 0500 GM/HA): 100%; plant response ([6]; POSTEMERGENCE 0064 GM/HA): 0%; plant response ([6]; POSTEMERGENCE 0125 GM/HA): 0%; plant response ([6]; POSTEMERGENCE 0250 GM/HA): 0%; plant response ([6]; POSTEMERGENCE 0500 GM/HA): 0%; plant response ([6]; PREEMERGENCE 0500 GM/HA): 0%; plant response ([7]; POSTEMERGENCE 0064 GM/HA): 0%; plant response ([7]; POSTEMERGENCE 0125 GM/HA): 0%; plant response ([7]; POSTEMERGENCE 0250 GM/HA): 20%; plant response ([7]; POSTEMERGENCE 0500 GM/HA): 40%; plant response ([7]; PREEMERGENCE 0500 GM/HA): 100%; plant response ([8]; POSTEMERGENCE 0064 GM/HA): 0%; plant response ([8]; POSTEMERGENCE 0125 GM/HA): 0%; plant response ([8]; POSTEMERGENCE 0250 GM/HA): 0%; plant response ([8]; POSTEMERGENCE 0500 GM/HA): 0%; plant response ([8]; PREEMERGENCE 0500 GM/HA): 30%
